This is an account of results in PMC9006992 (Frontiers in Pharmacology, 2022).

Data set [1] is described as follows: Quantification of M38 in pooled human plasma using a synthesized reference. In kind it is in vivo. Particulars: non-radiolabelled metabolite.
Data set [2] deals with human liver microsomes (HLM). Briefly: Incubation with HLMs and CYP-specific inhibitors. In kind it is in vitro ADME. Particulars: 10 μM 14C-ACT-1004-1239, 1 μM ketoconazole (CYP3A4 inhibitor).
For data set [3], the system named is carboxylesterases (i.e., CES1b, CES1c, and CES2). In words: Exploratory in vitro studies on enzymes catalyzing formation of M23. In kind it is in vitro ADME. As to conditions: Idorsia data on file.
A short description of data set [4]: Metabolite profiling in human plasma, urine and feces pools (HPLC-AMS). In kind it is in vivo. Particulars: for Feces % of dose: based on geometric mean of total cumulative excretion in feces; for Urine % of dose: based on geometric mean of total cumulative excretion in urine. The protocol:
For each subject, plasma samples were pooled based on the Hamilton pooling scheme ([Hamilton et al., 1981]) with samples collected within 72 h. Thereafter, a single cross-subject plasma pool was prepared by using a constant proportion of each individual Hamilton pool. Proportional pooling was applied for urine and homogenized feces samples. […] A single cross-subject pool for both excreta was prepared by taking a sample representing 10% of each individual pool to obtain a representative pool of at least 95% of the total excreted ^14C across all subjects.
Pooled plasma and feces samples were further purified by liquid-liquid extraction prior to HPLC analysis. The pooled plasma sample (4,000 μl) was extracted with 1200 μl acetonitrile:methanol (80:20, v/v) (Thermo Fisher Scientific, Waltham, MA, United States). After mixing for 1 min, the sample was centrifuged for 10 min at 3,750 rpm and 10°C […]. Thereafter, the supernatant was collected, dried, and aliquoted for analysis. These extraction steps were repeated two additional times with the remaining pellet to obtain a high extraction recovery. The homogenized feces sample (200 mg) was extracted by addition of 800 μl acetonitrile, followed by centrifugation for 5 min at 3,750 rpm and 4°C. The supernatant was collected and dried with nitrogen at 40°C. The remaining pellet was extracted by addition of 800 μl acetonitrile:water (1:1, v/v) followed by a drying process with nitrogen. The dried extract was reconstituted with acetonitrile:mobile phase A (see Analytical Method for Metabolite Profiling) (1:9, v/v) and vortexed for 5 min. […] Urine samples were directly used for analysis.
Metabolite profiles were generated by using HPLC together with an AMS detector. The plasma extract (120 μl), the feces extract (10 μl), and urine (100 μl) were injected onto the HPLC (Agilent 1290, Agilent Technologies, Santa Clara, CA, United States) equipped with a binary pump G4220A (Agilent Technologies), an autosampler G4226A (Agilent Technologies), a column compartment G1316C (Agilent Technologies), and a fraction collector G1364C (Agilent Technologies). […] Mobile phases consisted of 20 mM ammonium formate adjusted to pH 9.5 with ammonium hydroxide (phase A) and a 7:2:1 (v/v/v) mixture of acetonitrile, methanol, and mobile phase A (phase B). […] Following HPLC analysis, pools of HPLC fractions were prepared by taking equivalent portions of consecutive individual fractions for analysis with AMS (SSAMS-250, National Electrostatics Corp., Middleton, WI, United States). The amounts of ^14C in each fraction and fraction pool were summed and compared to the solution injected onto the HPLC for the determination of profile recovery.

The subject of another data set is CYP3A4. Briefly: Incubation with recombinant human CYP3A4. In kind it is in vitro ADME. Particulars: intersystem extrapolation scaling approach; 100 pmol/ml CYP, 10 μM, 60 min. The method, then:
(§1) ^14C-ACT-1004-1239 was incubated for 60 min with 100 pmol/ml of the respective recombinant CYP (CYP1A1, CYP1A2, CYP2B6, CYP2C8, CYP2C9, CYP2C19, CYP2D6, or CYP3A4) in 100 mM phosphate buffer (pH 7.4) at a final ^14C-ACT-1004-1239 concentration of 10 μM. The incubation was initiated by addition of the pre-warmed NADPH-regenerating system and terminated by the addition of one volume equivalent acetonitrile. The NADPH-regenerating system was prepared as described in Incubation With HLMs and CYP-Specific Inhibitors. The organic solvent concentration in all incubations was kept at 0.5% (v/v). Control incubations in the absence of the NADPH-regenerating system or CYP, as well as incubations with control bactosomes, were performed in parallel under otherwise identical conditions. The samples were centrifuged for 10 min at 20,800 g and 10°C to obtain the supernatant which was used for HPLC analysis (as described in Analytical Method for Metabolite Profiling). The resulting data were further used to determine their contribution to the metabolic clearance in vitro by applying the intersystem extrapolation scaling approach as described by [Chen et al. (2011)]. […]

A further data set concerns CYP2C8. In words: Incubation with recombinant human CYP2C8. In kind it is in vitro ADME. As to conditions: intersystem extrapolation scaling approach; 100 pmol/ml CYP, 10 μM, 60 min. The protocol: as §1
For data set [5] the following is noted: ref Huynh et al., cited from earlier work.
On the set-up of data set [6]: method as in Richard-Bildstein et al., 2020. Particulars: ref Richard-Bildstein et al., 2020; cited from earlier work.
In a further data set the test system is CYP2C19. In words: Incubation with recombinant human CYP2C19. It is filed as in vitro ADME. As to conditions: intersystem extrapolation scaling approach; 100 pmol/ml CYP, 10 μM, 60 min. The protocol: as §1
Data set [7] is described as follows: Pharmacokinetics of total 14C-radioactivity in human plasma (microtracer, AMS). Particulars: single oral 9.2 μg 14C-ACT-1004-1239 + 100 mg ACT-1004-1239. In kind it is in vivo.

The structures appear in SMILES notation.

Turning to `N[C@H]1CCN(CC2CC2)C[C@@H]1C(=O)NC1(c2ncccn2)CC1` [M38], in [1], the “presence in pooled human plasma” value is recorded as “negligible”.

Take `CC(=O)N1CCN(c2ccc(OCC3COC(Cn4ccnc4)(c4ccc(Cl)cc4Cl)O3)cc2)CC1` (stereo not shown) [ketoconazole]: in data set [2], the “formation of M1 in presence of inhibitor” value is reported as “completely abolished”.

`O=C(O)c1cc(-c2ccc(F)cc2F)on1` [M23]: in data set [3], the “involvement of carboxylesterases in formation of M23” value is “excluded the involvement of carboxylesterases”. Moreover, the “Plasma % in sample (relative abundance, % of total radioactivity)” value in data set [4] (cross-subject plasma pool, samples within 72 h) is given as 21.1%.

Take `O=C(N[C@H]1CCNC[C@@H]1C(=O)NC1(c2ncccn2)CC1)c1cc(-c2ccc(F)cc2F)on1` [M1]: the “Urine + feces % of dose” value in data set [4] (14C-radioactive dose excreted) was found to be 25.1%. For the same molecule, in [4], the “Feces % of dose” value was 23.7% and the “Urine % of dose” value is on record as 1.4%.

In the case of `O=C(N[C@H]1CCN(CC2CC2)C[C@@H]1C(=O)NC1(c2ncccn2)CC1)c1cc(-c2ccc(F)cc2F)on1` [ACT-1004-1239], the “contribution of CYP3A4 to total M1 formation (total turnover in vitro)” value in the data set on CYP3A4 was 94%. Further, in [4], the “Feces % of dose” value is on record as 5.2% and the “Urine % of dose” value is 10.1%. The “contribution of CYP2C8 to M1 formation” value in the data set on CYP2C8 is given as 1.2%. In data set [5] (healthy humans, dose range 1–200 mg, single and multiple dose, 2021b, Huynh et al., 2021a), the “safety and tolerability profile” value was “favorable safety and tolerability profiles”. The “time to reach maximum plasma concentration [tmax]” value in data set [5] (male and female subjects, oral 1-200 mg, 2021a, Huynh et al., 2021b) is 1 to 3 h. In [5] (multiple-dose, 2021a), the “accumulation at steady state” value was “almost no accumulation” and the “time to steady-state conditions of systemic exposure” value is ≤ 3 days. Moreover, in data set [5] (2021b), the absolute bioavailability is reported as 53%, the “effect of food on the PK” value is “no relevant effect” and the volume of distribution was 183 L. For the same molecule, in data set [6], the absorption in rats result is reported as “rapidly absorbed” and the “volume of distribution in rats” value was “in excess of total body water”. The “contribution of CYP2C19 to M1 formation” value in the data set on CYP2C19 is reported as 5.2%. Besides, in data set [7], the “plasma concentration of 14C-drug-related material after 72 h post-dose” value is on record as “below the limit of quantification”.
